Some test systems named below: 786-0 renal; BT-549 breast; DU-145 prostate; HCC-2998 colon; HS 578T breast; MDA-MB-435; MDA-N; NCI-H23 lung; NCI/ADR-RES ovarian; PC-3 prostate; RXF 393 renal; SK-OV-3 ovarian; LOX IMVI melanoma.
Assay in all cases: DTP human tumour cell line panel, 48 h

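1) Cells in 96-well plates. 2) Compound, 48 h, 5 concentrations. 3) Linear interpolation between surrounding doses. 4) Unreached endpoint = highest concentration. GI50: concentration for 50% inhibition of growth. TGI: total growth inhibition.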

As for `COc1ccc2nc3cc(Cl)ccc3c(NCCCN(C)CCCNc3ccc4ncn5c6ccccc6c(=O)c3c45)c2c1`, the TGI (commonly the concentration giving total growth inhibition) is 8.7 µM in the experiment with 786-0 renal; 4.59 µM in the experiment with BT-549 breast; 7.19 µM in the experiment with DU-145 prostate; 0.423 µM in the experiment on HCC-2998 colon; > 19.5 µM with HS 578T breast; 5.23 µM with MDA-MB-435. The TGI in the experiment on MDA-N was 4.77 µM; with NCI-H23 lung, 6.13 µM; in the experiment on NCI/ADR-RES ovarian, > 14.1 µM; with PC-3 prostate, 5.34 µM; with RXF 393 renal, 1.14 µM; with SK-OV-3 ovarian it was 6.04 µM.
Regarding `CC(C)OP(=O)(OC(C)C)C(=Nc1ccc(N=C(NNc2ccc([N+](=O)[O-])cc2)P(=O)(OC(C)C)OC(C)C)cc1)NNc1ccc([N+](=O)[O-])cc1`, the total growth inhibition concentration (TGI) in the experiment on LOX IMVI melanoma and with NCI-H23 lung was > 100 µM each time.
In the case of `O[C@@H]1CCCCN1Cc1cc2cc3c(cc2c2cc(OCc4ccccc4)ccc12)OCO3`, the GI50 (commonly the concentration that inhibits growth by half) in the experiment on BT-549 breast is 1.73 µM; with DU-145 prostate, 1.63 µM; in the experiment with HCC-2998 colon, 0.509 µM; in the experiment on MDA-MB-435 it was 1.63 µM; in the experiment on NCI/ADR-RES ovarian, 1.5 µM; with SK-OV-3 ovarian it was 1.64 µM. For the same compound, the TGI in the experiment with BT-549 breast came to 3.31 µM; with DU-145 prostate, 3.02 µM; in the experiment with HCC-2998 colon, 1.83 µM; in the experiment with MDA-MB-435, 3.06 µM; in the experiment on NCI/ADR-RES ovarian it was 3.47 µM; in the experiment on SK-OV-3 ovarian it was 3.39 µM.
Consider `CS(=O)(=O)Sc1ccc(Cl)cc1`, for which the concentration for total growth inhibition (TGI) in the experiment with 786-0 renal came to 19.2 µM; in the experiment with HCC-2998 colon, 24 µM; with LOX IMVI melanoma it was 11.5 µM; in the experiment with NCI-H23 lung it was 27.7 µM; in the experiment on RXF 393 renal it was 20.8 µM; in the experiment on SK-OV-3 ovarian, 43.9 µM.
Turning to `CCOC(=O)/C(C#N)=c1/s/c(=C(\O)N/N=C/c2ccc(OC)cc2)c(=N)n1-c1ccccc1`, the TGI in the experiment on HCC-2998 colon, in the experiment with NCI-H23 lung and in the experiment with SK-OV-3 ovarian was > 100 µM throughout.
In the case of `NC(C(=O)O)C(O)c1cnc[nH]1` (stereo unspecified), the TGI with 786-0 renal, with BT-549 breast, in the experiment on DU-145 prostate, in the experiment with HS 578T breast, in the experiment on LOX IMVI melanoma and in the experiment on MDA-MB-435 was > 100 µM each time. The TGI with MDA-N, in the experiment with NCI-H23 lung, in the experiment with NCI/ADR-RES ovarian, in the experiment on PC-3 prostate, in the experiment on RXF 393 renal and in the experiment on SK-OV-3 ovarian was > 100 µM in each case.
`C[N+](C)(C)CC(=O)N/N=C\c1c(O)ccc2ccccc12`: the TGI was > 100 µM in the experiment on 786-0 renal; > 100 µM in the experiment on DU-145 prostate; 56.5 µM with HS 578T breast; > 100 µM in the experiment with LOX IMVI melanoma; > 100 µM with MDA-MB-435; > 100 µM in the experiment on MDA-N. Further, the TGI with NCI-H23 lung was > 100 µM; in the experiment with NCI/ADR-RES ovarian it was > 100 µM; with PC-3 prostate, > 100 µM; in the experiment on RXF 393 renal it was 82.5 µM; with SK-OV-3 ovarian, > 100 µM.
For `O=c1cc(O)c1=O`, the TGI in the experiment with BT-549 breast, in the experiment on DU-145 prostate, with HCC-2998 colon, in the experiment with HS 578T breast, with LOX IMVI melanoma and in the experiment on MDA-MB-435 was > 100 µM each time. Moreover, the TGI with MDA-N, with NCI-H23 lung, in the experiment on PC-3 prostate and in the experiment on SK-OV-3 ovarian was > 100 µM each time.
As for `CCCCCCCCCCCCOC(=N)N1CCOCC1`, the TGI in the experiment with 786-0 renal came to 28.4 µM; with HCC-2998 colon, 23.8 µM; with LOX IMVI melanoma, 34.4 µM; in the experiment with NCI-H23 lung, 27.4 µM; in the experiment with RXF 393 renal, 25.9 µM; in the experiment with SK-OV-3 ovarian, 34.1 µM.
As to `Nc1ccc(Oc2ccc(C3(c4ccc(Oc5ccc(N)c(O)c5)cc4)C4CC5CC(C4)CC3C5)cc2)cc1O`, the TGI in the experiment on BT-549 breast is 5.27 µM; in the experiment with DU-145 prostate it was 3.68 µM; in the experiment with HCC-2998 colon it was 3.01 µM; in the experiment with HS 578T breast it was 5.32 µM; in the experiment on MDA-MB-435, 5.22 µM; in the experiment on MDA-N it was 4.75 µM. For the same compound, the TGI in the experiment on NCI/ADR-RES ovarian was found to be 5.91 µM; with PC-3 prostate, 3.18 µM; in the experiment on RXF 393 renal it was 4.51 µM; with SK-OV-3 ovarian, 7.1 µM.
`C/C(=C\COP(=O)(O)CP(=O)(O)O)CC/C=C(\C)CNc1ccccc1`: the concentration for total growth inhibition (TGI) in the experiment with 786-0 renal, in the experiment on BT-549 breast, in the experiment with DU-145 prostate, with HS 578T breast, in the experiment on LOX IMVI melanoma and with MDA-MB-435 was > 100 µM each time. Moreover, the TGI in the experiment with NCI-H23 lung, in the experiment with NCI/ADR-RES ovarian, in the experiment with PC-3 prostate, in the experiment with RXF 393 renal and with SK-OV-3 ovarian was > 100 µM throughout.
For `COC(=O)C(Cc1ccc2c(c1)OCO2)(NC(=O)c1ccccc1)P(=O)(OC)OC` (stereo unspecified), the TGI with HCC-2998 colon, in the experiment on LOX IMVI melanoma, with NCI-H23 lung, with RXF 393 renal and in the experiment on SK-OV-3 ovarian was > 100 µM in each case.
As to `Cc1nnc(NS(=O)(=O)c2ccc(N=Nc3c(O)c(C(=O)O)cc4ccccc34)cc2)s1`, the TGI in the experiment on 786-0 renal, in the experiment on DU-145 prostate, in the experiment with HCC-2998 colon, in the experiment on HS 578T breast, in the experiment with MDA-MB-435 and in the experiment with MDA-N was > 100 µM each time. The TGI in the experiment with NCI-H23 lung, in the experiment with NCI/ADR-RES ovarian, in the experiment with PC-3 prostate, with RXF 393 renal and in the experiment on SK-OV-3 ovarian was > 100 µM in each case.
`COc1ccc2c(c1)SC1=Nc3sc4cc(OC)ccc4[n+]3CN12`: the TGI in the experiment with 786-0 renal is 82.7 µM; in the experiment on BT-549 breast, > 100 µM; in the experiment on DU-145 prostate, > 100 µM; with HS 578T breast it was > 100 µM; in the experiment with MDA-MB-435, > 100 µM; in the experiment with MDA-N it was > 100 µM. Moreover, the TGI in the experiment on NCI-H23 lung, with NCI/ADR-RES ovarian, in the experiment on PC-3 prostate and with SK-OV-3 ovarian was > 100 µM throughout.

(Values after PubChem BioAssay (NCI).)
